Source: US12570666B2, “Furoindazole derivatives” (Bayer Aktiengesellschaft, priority 2019, dated 2026)

Target: T1, human GPR84 receptor (Homo sapiens, UniProt Q9NQS5)
T1 construct: frozen aliquots prepared by acCELLerate; host or cells: CHO-K1
Experiment: cAMP HTRF assay for identification of cellular GPR84 antagonists
Type: cell-based
Settings: CHO-K1 cells stably expressing human GPR84; Forskolin + agonist 6-OAU (EC80); average or median values
Source text: cAMP HTRF® Assay for Identification of Cellular GPR84 Antagonists
By using a Homogenous Time-Resolved Fluorescence (HTRF®) based assay (#62AM5PEJ, Cisbio, Condolet, France) the inhibition of the Gi-coupled GPR84 receptor can be detected. CHO-K1 cells stably expressing human GPR84 receptor (purchased from DiscoveRx, now Eurofins) were used and treated with Forskolin (F6886, Sigma, Germany) to stimulate membrane adenylyl cyclases and thereby unspecific cAMP formation. Activation of the Gi-coupled GPR84 by a natural or small molecule agonist (e.g. 6-n-octyl aminouracile, inhouse) results in inhibition of cellular cAMP formation which can be released again by antagonists to this receptor. Detection and quantification of cellular cAMP levels in this HTRF assay is achieved by interaction between a fluorescent cAMP tracer (cAMP-d2) and an Eu-cryptate labelled anti-cAMP antibody. Following excitation at 337 nm this pairing allows for the generation of a fluorescence resonance energy transfer (FRET) between the partners and results in FRET induced emissions at 665 nm and 620 nm, the latter representing background signal by Eu-cryptate labelled anti-cAMP antibody. Maximal signal is obtained in the absence of any cellular cAMP (no competition for the binding of the tracer to the antibody). Given the combination of the Gi coupling properties of GPR84 and the competitive nature of the detection system agonist treatment should result in an increase in the HTRF signal due to lowered cAMP levels. Any signal decrease in the presence of Forskolin, agonist and compound is indicative of antagonist mediated abrogation of GPR84 signalling.
For the assay, frozen aliquots of CHO-K1 cells expressing hGPR84 (prepared by acCELLerate, Hamburg, Germany) were thawed and a cell suspension (1.67E+06 cells/mL) in assay media (Ham's F12 Nutrient Mix, Thermo Fisher Scientific, Waltham, USA; 5% fetal calf serum, Biomol, Hamburg, Germany) containing cAMP-d2 (dilution 1:20, supplied with the kit #62AM5PEJ, Cisbio, Condolet, France) was prepared. After recovery of cells for 20 minutes at 37° C., 3 μL/well cell suspension including cAMP-d2 were added to a pre-dispensed assay plate (Greiner Bio-One, Kremsmuenster, Austria) containing 50 nl/well test compound in 100% DMSO or 100% DMSO as control. This was followed by a 30 minutes incubation step at room temperature. […] The reaction was stopped by addition of 3 μL/well lysis buffer containing cAMP Eu-Cryptate antibody (dilution 1:20) (both supplied with the kit #62AM5PEJ, Cisbio, Condolet, France). To enable complete lysis, plates were incubated for 60 minutes at room temperature before measurement in an HTRF reader, e.g. a PHERAstar (BMG Labtech, Ortenberg, Germany).
From the fluorescence emissions at 665 nm (FRET) and at 620 nm (background signal of Eu-cryptate) the ratio (emission at 665 nm divided by emission at 620 nm×10000) was calculated and the data were normalized (reaction without test compound, only 100% DMSO=0% inhibition; all other assay components except agonist=100% inhibition). For dose response testing on the same microtiter plate, compounds were tested at 11 different concentrations in the range of 20 μM to 0.07 nM (20 μM, 5.7 μM, 1.6 μM, 0.47 μM, 0.13 μM, 38 nM, 11 nM, 3.1 nM, 0.89 nM, 0.25 and 0.07 nM; dilution series prepared before the assay at the level of the 100-fold conc. stock solutions by serial 1:3.5 dilutions in 100% DMSO) in duplicate values for each concentration. IC50 values were calculated by 4-parameter fitting using a commercial software package (Genedata Screener, Basel, Switzerland).
Examples were tested in selected biological assays one or more times. […]

T1 sequence (Q9NQS5 whole entry): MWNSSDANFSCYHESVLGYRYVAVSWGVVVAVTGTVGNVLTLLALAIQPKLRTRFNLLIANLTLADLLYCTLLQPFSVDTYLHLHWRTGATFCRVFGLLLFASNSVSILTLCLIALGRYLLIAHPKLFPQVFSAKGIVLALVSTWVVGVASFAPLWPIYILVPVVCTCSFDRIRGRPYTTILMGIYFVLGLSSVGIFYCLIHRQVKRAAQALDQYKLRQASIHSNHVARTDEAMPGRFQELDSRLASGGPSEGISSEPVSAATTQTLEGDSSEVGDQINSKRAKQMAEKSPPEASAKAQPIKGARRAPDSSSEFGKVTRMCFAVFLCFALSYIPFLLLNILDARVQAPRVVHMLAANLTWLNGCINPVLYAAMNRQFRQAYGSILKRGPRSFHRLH

Row | SMILES | IC50
1 | Cc1c(C(=O)NC[C@@H]2CCCO2)oc2c1-c1nn(CC3COC3)cc1CC2 [Example 91, 8-methyl-2-(oxetan-3-ylmethyl)-N-[(2S)-tetrahydrofuran-2-ylmethyl]-4,5-dihydro-2H-furo[2,3-g]indazole-7-carboxamide] | 0.064 µM
2 | Cc1c(C(=O)NC[C@@H]2CCCO2)oc2c1-c1nn(CC3(F)COC3)cc1CC2 [Example 95, 2-[(3-fluorooxetan-3-yl)methyl]-8-methyl-N-[(2S)-tetrahydrofuran-2-ylmethyl]-4,5-dihydro-2H-furo[2,3-g]indazole-7-carboxamide] | 0.031 µM
3 | Cc1c(C(=O)NC[C@@H]2COCCO2)oc2c1-c1nn(Cc3ccccn3)cc1CC2 [Example 19-1, N-[(2R)-1,4-dioxan-2-ylmethyl]-8-methyl-2-(pyridin-2-ylmethyl)-4,5-dihydro-2H-furo[2,3-g]indazole-7-carboxamide] | 0.064 µM
4 | Cc1ccc(Cn2cc3c(n2)-c2c(oc(C(=O)NC[C@@H]4CCCO4)c2C)CC32CCC2)nc1 [Example 203] | 0.022 µM
5 | Cc1c(C(=O)NC[C@@H]2CCCO2)oc2c1-c1nn(Cc3ccccn3)cc1C(C)(C)C2 [Example 148, 4,4,8-trimethyl-2-(pyridin-2-ylmethyl)-N-[(2S)-tetrahydrofuran-2-ylmethyl]-4,5-dihydro-2H-furo[2,3-g]indazole-7-carboxamide] | 0.035 µM
6 | COC(=O)N1CC(F)(Cn2cc3c(n2)-c2c(oc(C(=O)NC[C@@H]4CCCO4)c2C)CC3)C1 [Example 167, methyl 3-fluoro-3-[(8-methyl-7-{[(2S)-tetrahydrofuran-2-ylmethyl]carbamoyl}-4,5-dihydro-2H-furo[2,3-g]indazol-2-yl)methyl]azetidine-1-carboxylate] | 0.06 µM
7 | Cc1c(C(=O)NCc2cc(C3CC3)on2)oc2c1-c1nn(Cc3ccccn3)cc1CC2 [Example 7, N-[(5-cyclopropyl-1,2-oxazol-3-yl)methyl]-8-methyl-2-(pyridin-2-ylmethyl)-4,5-dihydro-2H-furo[2,3-g]indazole-7-carboxamide] | 0.15 µM
8 | Cc1ccc(Cn2cc3c(n2)-c2c(oc(C(=O)NC[C@@H]4CCCO4)c2C)CC3)cn1 [Example 75, 8-methyl-2-[(6-methylpyridin-3-yl)methyl]-N-[(2S)-tetrahydrofuran-2-ylmethyl]-4,5-dihydro-2H-furo[2,3-g]indazole-7-carboxamide] | 0.06 µM
9 | Cc1c(C(=O)NCC2CCC3(COC3)O2)oc2c1-c1nn(Cc3ccccn3)cc1CC2 (racemic) [Example 180] | 0.21 µM
10 | Cc1cccnc1Cn1cc2c(n1)-c1c(oc(C(=O)NC[C@@H]3COCCO3)c1C)CC2 [Example 63, N-[(2R)-1,4-dioxan-2-ylmethyl]-8-methyl-2-[(3-methylpyridin-2-yl)methyl]-4,5-dihydro-2H-furo[2,3-g]indazole-7-carboxamide] | 0.06 µM
11 | Cc1c(C(=O)NCc2ccon2)oc2c1-c1nn(CC3COc4ncccc4O3)cc1CC2 (racemic) [Example 55, 2-[(2R/S)-2,3-dihydro[1,4]dioxino[2,3-b]pyridin-2-ylmethyl]-8-methyl-N-(1,2-oxazol-3-ylmethyl)-4,5-dihydro-2H-furo[2,3-g]indazole-7-carboxamide] | 0.049 µM
12 | C[C@@H]1Cc2oc(C(=O)NC[C@@H]3COCCO3)c(C(F)(F)F)c2-c2nn(CC3CCN(C(=O)C4(O)CC4)CC3)cc21 (single isomer, unassigned) [Example 295, (4R or 4S)-N-{[(2R)-1,4-dioxan-2-yl]methyl}-2-{[1-(1-hydroxycyclopropane-1-carbonyl)piperidin-4-yl]methyl}-4-methyl-8-(trifluoromethyl)-4,5-dihydro-2H-furo[2,3-g]indazole-7-carboxamide] | 0.008 µM
13 | C[C@@H]1Cc2oc(C(=O)NCc3cnc(Cl)cn3)c(C(F)(F)F)c2-c2nn(C[C@H]3COCCO3)cc21 (single isomer, unassigned) [Example 323, (4R or 4S)—N-[(5-chloropyrazin-2-yl)methyl]-2-{[(2S)-1,4-dioxan-2-yl]methyl}-4-methyl-8-(trifluoromethyl)-4,5-dihydro-2H-furo[2,3-g]indazole-7-carboxamide] | 0.003 µM
14 | O=C(NC[C@@H]1CCCO1)c1cc2c(o1)CCc1cn(Cc3ccccn3)nc1-2 [Example 1, 2-(pyridin-2-ylmethyl)-N-[(2S)-tetrahydrofuran-2-ylmethyl]-4,5-dihydro-2H-furo[2,3-g]indazole-7-carboxamide] | 1 µM
15 | Cc1c(C(=O)NCc2nocc2C(=O)O)oc2c1-c1nn(Cc3ccccn3)cc1CC2 [Example 31, 3-[({[8-methyl-2-(pyridin-2-ylmethyl)-4,5-dihydro-2H-furo[2,3-g]indazol-7-yl]carbonyl}amino)methyl]-1,2-oxazole-4-carboxylic acid] | > 20 µM
16 | C[C@@H]1Cc2oc(C(=O)NCc3cnc(C(F)(F)F)nc3)c(C(F)(F)F)c2-c2nn(C[C@H]3COCCO3)cc21 (single isomer, unassigned) [Example 262, (4R or 4S)-2-{[(2S)-1,4-dioxan-2-yl]methyl}-4-methyl-8-(trifluoromethyl)-N-{[2-(trifluoromethyl)pyrimidin-5-yl]methyl}-4,5-dihydro-2H-furo[2,3-g]indazole-7-carboxamide] | 0.195 µM
17 | O=C(NC[C@@H]1COCCO1)c1oc2c(c1C1CC1)-c1nn(C[C@H]3COCCO3)cc1CC2 [Example 193] | 0.032 µM
18 | COCCNC(=O)c1oc2c(c1C)-c1nn(Cc3ccccn3)cc1CC2 [Example 29, N-(2-methoxyethyl)-8-methyl-2-(pyridin-2-ylmethyl)-4,5-dihydro-2H-furo[2,3-g]indazole-7-carboxamide] | 0.29 µM
19 | Cc1c(C(=O)NC[C@@H]2CCCO2)oc2c1-c1nn(C[C@H]3CCOC3)cc1CC2 [Example 111, 8-methyl-N-[(2S)-tetrahydrofuran-2-ylmethyl]-2-[(3R)-tetrahydrofuran-3-ylmethyl]-4,5-dihydro-2H-furo[2,3-g]indazole-7-carboxamide] | 0.14 µM
20 | Cc1c(C(=O)Nc2ccn(C)n2)oc2c1-c1nn(Cc3ccccn3)cc1CC2 [Example 40, 8-methyl-N-(1-methyl-1H-pyrazol-3-yl)-2-(pyridin-2-ylmethyl)-4,5-dihydro-2H-furo[2,3-g]indazole-7-carboxamide] | 0.67 µM
21 | CC1CCC(CNC(=O)c2oc3c(c2C(F)(F)F)-c2nn(CC4COCCO4)cc2CC3)O1 (single isomer, unassigned) [Example 224-1, 2-{[(2S)-1,4-dioxan-2-yl]methyl}-N-{[(2R or 2S,5R or 5S)-5-methyloxolan-2-yl]methyl}-8-(trifluoromethyl)-4,5-dihydro-2H-furo[2,3-g]indazole-7-carboxamide] | 0.016 µM
22 | O=C(NC[C@H]1CC(F)(F)CO1)c1oc2c(c1C(F)(F)F)-c1nn(C[C@H]3COCCO3)cc1CC2 (single isomer, unassigned) [Example 222-2, N-{[(2S or 2R)-4,4-difluorooxolan-2-yl]methyl}-2-{[(2S)-1,4-dioxan-2-yl]methyl}-8-(trifluoromethyl)-4,5-dihydro-2H-furo[2,3-g]indazole-7-carboxamide] | 0.054 µM
23 | Cc1c(C(=O)NC[C@@H]2CCCO2)oc2c1-c1nn(C[C@H]3COCCO3)cc1CC2 [Example 89, 2-[(2S)-1,4-dioxan-2-ylmethyl]-8-methyl-N-[(2S)-tetrahydrofuran-2-ylmethyl]-4,5-dihydro-2H-furo[2,3-g]indazole-7-carboxamide] | 0.04 µM
24 | Cc1ccc(Cn2cc3c(n2)-c2c(oc(C(=O)NC[C@@H]4CCCO4)c2C)CC3)c(C)n1 [Example 77, 2-[(2,6-dimethylpyridin-3-yl)methyl]-8-methyl-N-[(2S)-tetrahydrofuran-2-ylmethyl]-4,5-dihydro-2H-furo[2,3-g]indazole-7-carboxamide] | 0.17 µM
